Laboratory results from US11440913B2, “Aminoimidazopyridazines as kinase inhibitors” (BRISTOL-MYERS SQUIBB COMPANY, priority 2017, dated 2022).
Counter-ions that a name gives are not always drawn. Like-named read-outs stand apart in the source and are kept apart here.

What was measured:
[1] = biological target: His-GST-TVMV-hRIPK1(1-324) (Homo sapiens (Human), UniProt Q13546); assay: RIPK1 HTRF Binding Assay; details: HTRF binding, 1 h at rt; read-out: RIPK1 (IC50)
Summary of the method: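 HTRF probe-displacement binding: 1 nM His-GST-TVMV-hRIPK1(1-324) (baculovirus construct), 90.6 nM probe, 0.2 nM anti-GST-Tb in 20 mM HEPES, 10 mM MgCl2, 0.015% Brij-35, 4 mM DTT, 0.05 mg/mL BSA. Incubated 1 h at rt; FRET 520/495 nm ratio, inhibition relative to DMSO-only wells.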

[2] = test system: MLKL phosphorylation in HT29-L23 human colorectal adenocarcinoma cells; assay: MLKL Phosphorylation High-Content Assay; type: cell-based; details: 6 h, necroptosis induced with TNFα, SMAC mimetic and Z-VAD, read-out: pMLKL (IC50)
Summary of the method: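 HT29-L23 cells pretreated 30 min at 37 °C with compound (6.25 to 0.106 μM final), then necroptosis induced with TNFα 35 ng/mL, SMAC mimetic 700 nM and Z-VAD 140 nM for 6 h. Fixed cells immunostained for MLKL pS358 and imaged; IC50 and Ymax from 4-parameter logistic fit.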

Chain of His-GST-TVMV-hRIPK1(1-324) (Q13546 1-324): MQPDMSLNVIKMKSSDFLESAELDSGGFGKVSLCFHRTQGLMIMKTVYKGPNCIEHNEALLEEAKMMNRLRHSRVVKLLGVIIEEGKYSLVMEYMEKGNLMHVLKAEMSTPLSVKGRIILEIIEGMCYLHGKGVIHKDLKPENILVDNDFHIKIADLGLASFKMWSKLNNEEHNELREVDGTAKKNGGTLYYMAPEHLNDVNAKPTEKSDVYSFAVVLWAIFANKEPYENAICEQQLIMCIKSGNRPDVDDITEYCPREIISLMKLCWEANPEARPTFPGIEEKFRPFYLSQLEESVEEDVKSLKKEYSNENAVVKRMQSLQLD

| SMILES | IC50 [1] | IC50 ([2]; Homo sapiens) | IC50 [2] |
| --- | --- | --- | --- |
| Cc1nc(C)c(-c2ccc3nc(NC(=O)CO)cn3n2)cc1C(=O)N[C@H](C)c1cc(C(F)(F)F)ccc1F [Example 92, N-[(1R)-1-[2-fluoro-5-(trifluoromethyl)phenyl]ethyl]-5-[2-(2-hydroxyacet-amido)imidazo[1,2-b]pyridazin-6-yl]-2,6-dimethylpyridine-3-carboxamide] | 48 nM | 127 nM | – |
| [2H]C([2H])(NC(=O)c1cc(-c2ccc3nc(NC(=O)CO)cn3n2)c(C)nc1C)c1cc(C(F)(F)F)ccc1F [Example 93, N-{[2-fluoro-5-(trifluoro-methyl)phenyl](deutero)methyl}-5-[2-(2-hydroxy-acetamido)imidazo[1,2-b]pyridazin-6-yl]-2,6-dimethylpyridine-3-carboxamide] | 50 nM | 129 nM | – |
| Cc1nc(C)c(-c2ccc3nc(NC(=O)CO)cn3n2)cc1C(=O)NCc1cc(C(F)(F)F)ccc1F [Example 94, N-{[2-fluoro-5-(trifluoromethyl)phenyl]methyl}-5-[2-(2-hydroxyacet-amido)imidazo[1,2-b]pyridazin-6-yl]-2,6-dimethylpyridine-3-carboxamide] | 77 nM | 87 nM | – |
| Cc1nc(C)c(-c2ccc3nc(NC(=O)CO)cn3n2)cc1C(=O)N[C@H](C)c1cc(OC(F)(F)F)ccc1F [Example 95, N-[(1R)-1-[2-fluoro-5-(trifluoromethoxy)phenyl]ethyl]-5-[2-(2-hydroxyacet-amido)imidazo[1,2-b]pyridazin-6-yl]-2,6-dimethylpyridine-3-carboxamide] | 30 nM | 68 nM | – |
| COc1ncc(-c2ccc3nc(NC(C)=O)cn3n2)cc1C(=O)NCc1cc(F)cc(F)c1OC1CCOC(C)C1 (centres unmarked) [Example 96, N-({3,5-difluoro-2-[(2-methyloxan-4-yl)oxy]phenyl}methyl)-5-{2-acetamidoimidazo[1,2-b]pyridazin-6-yl}-2-methoxypyridine-3-carboxamide] | 10 nM | 25 nM | – |
| COc1ncc(-c2ccc3nc(NC(C)=O)cn3n2)cc1C(=O)NCc1cc(F)cc(F)c1OCC1CCC1 [Example 97, N-{[2-(cyclobutylmethoxy)-3,5-difluorophenyl]methyl}-5-{2-acetamidoimidazo[1,2-b]pyridazin-6-yl}-2-methoxypyridine-3-carboxamide] | 2 nM | 2 nM | – |
| COc1ncc(-c2ccc3nc(NC(C)=O)cn3n2)cc1C(=O)NCc1cc(F)cc(F)c1O[C@H]1CCOC1 [Example 98, N-({3,5-difluoro-2-[(3S)-oxolan-3-yloxy]phenyl}methyl)-5-{2-acetamidoimidazo[1,2-b]pyridazin-6-yl}-2-methoxypyridine-3-carboxamide] | 2 nM | 39 nM | – |
| COc1ncc(-c2ccc3nc(NC(C)=O)cn3n2)cc1C(=O)NCc1cc(F)cc(F)c1OC1CCCOC1 (centres unmarked) [Example 99, N-{[3,5-difluoro-2-(oxan-3-yloxy)phenyl]methyl}-5-{2-acetamidoimidazo[1,2-b]pyridazin-6-yl}-2-methoxypyridme-3-carboxamide] | 6 nM | – | 24 nM |
| COc1ccc(F)c(CNC(=O)c2cc(-c3ccc4nc(NC(C)=O)cn4n3)cnc2OC)c1 [Example 100, 5-{2-acetamidoimidazo[1,2-b]pyridazin-6-yl}-N-[(2-fluoro-5-methoxyphenyl)methyl]-2-methoxypyridine-3-carboxamide] | 56 nM | 203 nM | – |
| COc1ncc(-c2ccc3nc(NC(C)=O)cn3n2)cc1C(=O)NCc1c(F)cccc1OCC(F)(F)F [Example 102, 5-{2-acetamidoimidazo[1,2-b]pyridazin-6-yl}-N-{[2-fluoro-6-(2,2,2-trifluoroethoxy)phenyl]methyl}-2-methoxypyridine-3-carboxamide] | 7 nM | 10 nM | – |
| COc1ncc(-c2ccc3nc(NC(C)=O)cn3n2)cc1C(=O)NCc1cc(F)cc(F)c1OC1CC(C)OC(C)C1 (centres unmarked) [Example 103, N-({2-[(2,6-dimethyloxan-4-yl)oxy]-3,5-difluorophenyl}methyl)-5-{2-acetamidoimidazo[1,2-b]pyridazin-6-yl}-2-methoxypyridine-3-carboxamide] | 51 nM | 188 nM | – |
| COc1ncc(-c2ccc3nc(NC(C)=O)cn3n2)cc1C(=O)N[C@H](C)c1ccccc1C(F)(F)F [Example 104, 5-{2-acetamidoimidazo[1,2-b]pyridazin-6-yl}-2-methoxy-N-[(1R)-1-[2-(trifluoromethyl)phenyl]ethyl]pyridine-3-carboxamide] | 36 nM | 73 nM | – |
| COc1ncc(-c2ccc3nc(NC(C)=O)cn3n2)cc1C(=O)NCc1cc(F)ccc1OCC(F)(F)F [Example 105, 5-{2-acetamidoimidazo[1,2-b]pyridazin-6-yl}-N-{[5-fluoro-2-(2,2,2-trifluoroethoxy)phenyl]methyl}-2-methoxypyridine-3-carboxamide] | 5 nM | 17 nM | – |
| COc1ncc(-c2ccc3nc(NC(C)=O)cn3n2)cc1C(=O)N[C@@H](C)c1cc(C(F)(F)F)ccc1F [Example 106, 5-{2-acetamidoimidazo[1,2-b]pyridazin-6-yl}-N-[(1S)-1-[2-fluoro-5-(trifluoromethyl)phenyl](2,2,2-deutero)ethyl]-2-methoxypyridine-3-carboxamide] | 84 nM | – | 95 nM |
| COc1ncc(-c2ccc3nc(NC(C)=O)cn3n2)cc1C(=O)N[C@H](C)c1cc(C(F)(F)F)ccc1F [Example 107, 5-{2-acetamidoimidazo[1,2-b]pyridazin-6-yl}-N-[(1R)-1-[2-fluoro-5-(trifluoromethyl)phenyl](2,2,2-deutero)ethyl]-2-methoxypyridine-3-carboxamide] | 193 nM | – | 306 nM |
| COc1ncc(-c2ccc3nc(NC(C)=O)cn3n2)cc1C(=O)NCc1ccccc1OCC(F)(F)F [Example 108, 5-{2-acetamidoimidazo[1,2-b]pyridazin-6-yl}-2-methoxy-N-{[2-(2,2,2-trifluoroethoxy)phenyl]meth-yl}pyridine-3-carboxamide] | 4 nM | 28 nM | – |
| COc1ncc(-c2ccc3nc(NC(C)=O)cn3n2)cc1C(=O)N[C@H](C)c1cc(OC(F)(F)F)ccc1F [Example 109, 5-{2-acetamidoimidazo[1,2-b]pyridazin-6-yl}-N-[(1R)-1-[2-fluoro-5-(trifluoromethoxy)phenyl](2,2,2-deutero)ethyl]-2-methoxypyridine-3-carboxamide] | 32 nM | – | 85 nM |
| COc1ncc(-c2ccc3nc(NC(C)=O)cn3n2)cc1C(=O)NCc1cccc(C(F)(F)F)c1 [Example 110, 5-{2-acetamidoimidazo[1,2-b]pyridazin-6-yl}-2-methoxy-N-{[3-(trifluoromethyl)phen-yl](deutero)methyl}pyridine-3-carboxamide] | 27 nM | – | 113 nM |
| COc1ncc(-c2ccc3nc(NC(C)=O)cn3n2)cc1C(=O)NCc1cc(C(F)(F)F)ccc1F [Example 111, 5-{2-acetamidoimidazo[1,2-b]pyridazin-6-yl}-N-{[2-fluoro-5-(trifluoromethyl)phen-yl](deutero)methyl}-2-methoxypyridine-3-carboxamide] | 19 nM | – | 36 nM |
| COc1ncc(-c2ccc3nc(NC(C)=O)cn3n2)cc1C(=O)N[C@H](C)c1cccc(OC(F)(F)F)c1 [Example 112, 5-{2-acetamidoimidazo[1,2-b]pyridazin-6-yl}-2-methoxy-N-[(1R)-1-[3-(trifluoromethoxy)phenyl](2,2,2-deutero)ethyl]pyridine-3-carboxamide] | 17 nM | – | 73 nM |
| COc1ncc(-c2ccc3nc(NC(C)=O)cn3n2)cc1C(=O)NCc1ccccc1CN1CCOCC1 [Example 113, 5-{2-acetamidoimidazo[1,2-b]pyridazin-6-yl}-2-methoxy-N-({2-[(morpholin-4-yl)methyl]phenyl}methyl)pyridine-3-carboxamide, 2 TFA] | 38 nM | – | 298 nM |
| COc1ncc(-c2ccc3nc(NC(C)=O)cn3n2)cc1C(=O)NCc1ccccc1COC(C)C [Example 114, 5-{2-acetamidoimidazo[1,2-b]pyridazin-6-yl}-2-methoxy-N-({2-[(propan-2-yloxy)methyl]phenyl}meth-yl)pyridine-3-carboxamide, TFA] | 8 nM | – | 33 nM |
| COc1ncc(-c2ccc3nc(NC(C)=O)cn3n2)cc1C(=O)NCc1cc(F)cc(F)c1OC1COC1 [Example 115, N-{[3,5-difluoro-2-(oxetan-3-yloxy)phenyl]methyl}-5-{2-acetamidoimidazo[1,2-b]pyridazin-6-yl}-2-methoxypyridine-3-carboxamide] | 12 nM | 65 nM | – |
| COc1ncc(-c2ccc3nc(NC(C)=O)cn3n2)cc1C(=O)NCc1cc(F)cc(F)c1OCC(C)C [Example 116, N-{[3,5-difluoro-2-(2-methylpropoxy)phenyl]methyl}-5-{2-acetamidoimidazo[1,2-b]pyridazin-6-yl}-2-methoxypyridine-3-carboxamide] | 10 nM | 3 nM | – |
| COc1ncc(-c2ccc3nc(NC(C)=O)cn3n2)cc1C(=O)NCc1ccccc1OCC(C)C [Example 117, 5-{2-acetamidoimidazo[1,2-b]pyridazin-6-yl}-2-methoxy-N-{[2-(2-methyl-propoxy)phenyl]methyl}pyridine-3-carboxamide] | 6 nM | 19 nM | – |
